{"source": "patent US8673578B2", "about": "“Methods of identifying antagonists of the hTAS2R46 bitter taste receptor” (Deutsches Institut für Ernahrungsforschung Potsdam-Rehbrücke, priority 2009, dated 2014)", "assay_in_all_cases": "calcium imaging (FLIPR), activation of hTAS2R-transfected HEK293T-Gα16gust44 cells", "assay_type_in_all_cases": "cell-based", "key": {"[1]": {"target": "T1, hTAS2R4 (Homo sapiens, UniProt Q9NYW5)", "T1 construct": "expressed in transfected cells; host or cells: HEK293T cells stably expressing chimeric Gα16gust44, transient transfection", "T1 sequence (Q9NYW5 1-299)": "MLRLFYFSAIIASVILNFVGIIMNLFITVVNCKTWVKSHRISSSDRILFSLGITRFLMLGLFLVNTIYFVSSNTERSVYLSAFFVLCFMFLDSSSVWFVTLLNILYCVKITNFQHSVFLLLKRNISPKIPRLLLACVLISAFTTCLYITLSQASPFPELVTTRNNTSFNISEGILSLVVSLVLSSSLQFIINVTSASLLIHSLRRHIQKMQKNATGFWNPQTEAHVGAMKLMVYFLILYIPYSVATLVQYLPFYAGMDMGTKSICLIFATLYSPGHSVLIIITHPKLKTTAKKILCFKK", "conditions": "100 μM test substance, bath application", "excerpt": "(§1) Human TAS2R cDNAs were cloned into pcDNA5/FRT (Invitrogen, San Diego, Calif.). For adequate plasma membrane targeting, receptor cDNA was fused to the aminoterminal sequence of the rat somatostatin type 3 receptor at the aminoterminus of the recombinant protein (Bufe, B., T. Hofmann, et al. (2002) Nat Genet. 32(3): 397-401). For immunological detection, the Herpes simplex Glycoprotein D epitope was supplemented at the carboxyterminus of the recombinant protein (Bufe et al., supra). Receptor constructs were transiently transfected into HEK293T cells stably expressing the chimeric G protein subunit Gα16gust44 (Ueda, T., S. Ugawa, et al. (2003) J Neurosci 23(19): 7376-80) using Lipofectamine 2000 (Invitrogen, San Diego, Calif.) in 96-well plates.\n(§2) Calcium Imaging experiments were performed 24 h after transfection using a Fluorometric Imaging Plate Reader (FLIPR, Molecular Devices, Munich, Germany) as previously described (Bufe et al., supra). Taste active compounds were ordered from Sigma (Sigma-Aldrich, Taufkirchen, Germany). Absinthin, 3β hydroxy dihydro costunolide and 3β hydroxy pelenolide were kindly provided by Giovanni Appendino (Novara, Italy). Test substances were directly dissolved in C1 buffer (130 mM NaCl, 10 mM Na-Hepes, 10 mM Glucose, 5 mM KCl, 2 mM CaCl2, pH 7.4) or in DMSO, respectively. DMSO stocks were further diluted in C1 buffer not exceeding a final DMSO concentration of 1% on the cells. For the investigation of antagonistic effects, test substances were premixed. Agonists were applied at concentrations corresponding to EC90, except where indicated otherwise (Table 2). Data were collected from 3 independent experiments performed in quadruplicates and processed with SigmaPlot (SPSS, Chicago, Ill.). Fluorescence signals after application of test substances were corrected for and normalized to background fluorescence (ΔF/F═(F−F0)/F0), and baseline noise was subtracted. Calculation of dose-response curves was done by nonlinear regression using the function f(y)=((a−d)/(1+(x/EC50)^nH)+d).\n(§3) In a first series of experiments we tested the two sesquiterpene lactones 3β hydroxy dihydro costunolide (formula (I) in FIG. 1) and 3β hydroxy pelenolide (formula (II) in FIG. 1) for their ability to activate hTAS2 receptor-expressing HEK293T cells.\n(§4) Signal amplitudes were comparatively small (FIG. 2C)."}, "[2]": {"target": "T2, hTAS2R38 (Homo sapiens, UniProt P59533)", "T2 construct": "expressed in transfected cells; host or cells: HEK293T cells stably expressing chimeric Gα16gust44, transient transfection", "T2 sequence (P59533 1-333)": "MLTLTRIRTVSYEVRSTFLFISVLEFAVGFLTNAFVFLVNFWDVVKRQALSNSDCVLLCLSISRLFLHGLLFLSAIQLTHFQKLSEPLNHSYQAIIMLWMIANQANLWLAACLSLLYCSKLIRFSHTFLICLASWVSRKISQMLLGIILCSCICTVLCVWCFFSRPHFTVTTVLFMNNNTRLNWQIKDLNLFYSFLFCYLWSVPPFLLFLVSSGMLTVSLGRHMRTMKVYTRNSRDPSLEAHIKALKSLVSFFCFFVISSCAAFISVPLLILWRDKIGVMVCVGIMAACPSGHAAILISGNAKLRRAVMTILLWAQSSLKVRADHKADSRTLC", "conditions": "100 μM test substance, bath application; DMSO control", "excerpt": "as §1, §2, §3, §4"}, "[3]": {"target": "T3, hTAS2R1 (Homo sapiens, UniProt Q9NYW7)", "T3 construct": "expressed in transfected cells; host or cells: HEK293T cells stably expressing chimeric Gα16gust44, transient transfection", "T3 sequence (Q9NYW7 1-299)": "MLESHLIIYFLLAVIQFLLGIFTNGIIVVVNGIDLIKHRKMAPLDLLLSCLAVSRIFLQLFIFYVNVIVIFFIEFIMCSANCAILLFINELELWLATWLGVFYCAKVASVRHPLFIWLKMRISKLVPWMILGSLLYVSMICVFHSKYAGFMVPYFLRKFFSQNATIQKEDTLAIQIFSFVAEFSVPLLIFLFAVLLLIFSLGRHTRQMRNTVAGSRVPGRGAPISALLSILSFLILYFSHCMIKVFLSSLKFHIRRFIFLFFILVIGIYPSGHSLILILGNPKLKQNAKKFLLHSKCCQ", "conditions": "100 μM test substance, bath application", "excerpt": "as §1, §2, §3, §4"}}, "data": [{"smiles": "C/C1=C\\C[C@H](O)/C(C)=C/[C@H]2OC(=O)[C@@H](C)C2CC1", "note": "(stereo partly drawn) [3β hydroxy dihydro costunolide]", "values": [{"measurement": "calcium response of hTAS2R4-transfected cells", "setting": "[1]", "value": "responded"}, {"measurement": "calcium response of hTAS2R38-transfected cells", "setting": "[2]", "value": "generated by DMSO used as solvent"}, {"measurement": "calcium response of hTAS2R1-transfected cells", "setting": "[3]", "value": "responded"}]}]}
